In patent publication US5468772A, “Tripterinin compound and method” (Pharmagenesis, Inc., priority 1993, dated 1995):

Legend:
TNFα = settings: RA patients, long term administration; cited from earlier work
IL-1 = settings: RA patients, long term administration; cited from earlier work
HIV = settings: cited from earlier work
mouse thymocytes = experiment: Inhibition of IL-1 action: IL-1 stimulated mouse thymocyte proliferation in presence of PHA; assay type: cell-based; settings: tripterifordin 3.13 μg/ml, about 3 μg/ml, tripterinin 0.02 to 1 μg/ml
Method: The ability of tripterinin and tripterifordin to suppress the cell-proliferative effect of IL-1 in mouse thymocytes, an index of IL-1 action (O'Gara), was also examined. In this study, mouse thymocytes in culture were stimulated with IL-1 in the presence of phytohemagglutinin (PHA) and increasing concentrations of purified tripterinin or tripterifordin. The cells were cultured for 72 hours, and during the last four hours, incubated with tritiated thymidine. DNA synthesis was assessed by measurement of radiolabeled thymidine incorporation.
Mouse thymocytes were prepared, and the action of IL-1, which stimulates thymocyte proliferation, was measured using standard techniques (O'Gara). Three to six week old C3H/HeN mice were obtained from Simonsen Laboratories, Gilroy, Calif. and sacrificed by CO2 inhalation. Thymi were removed, separated from adherent non-thymic tissue, homogenized in Hank's balanced salt solution (Gibco) using a glass homogenizer, and centrifuged at 180×g for 10 minutes at 15° C. Following an additional wash in HBSS, the thymocytes were resuspended in RPMI 1640 tissue culture medium (Gibco) containing 50 μM 2-mercaptoethanol (Fisher), 2 mM glutamine (Gibco), 1 mM sodium pyruvate, non-essential amino acids, penicillin (100 U/ml) streptomycin (100 μg/ml), 10% heat inactivated fetal bovine serum and Phytohemagglutinin (PHA, Pharmacia, final concentration 10 μg/ml). Cells were cultured in round-bottom 96 well microtiter tissue culture plates, 6×10^5 cells per well in a volume of 100 μl. Tripterinin or tripterifordin was diluted in tissue culture medium and added to the wells in the presence and absence of IL-1 (recombinant human IL-1, R&D Systems catalog #201-LB, 0.1 ng/ml). Total volume was 150 μl per well.
Plates were incubated for 72 hours (95% air/5% CO2, 37° C.). During the last four hours of incubation, [^3 H]-thymidine (Amersham, […]) was added (0.5 μCi per well). Cells were harvested onto Whatman 934-AH glass microfiber filters and counted in a Beckman LS 6000 scintillation counter. Results were expressed as counts per minute per well.

[1] = test system: human peripheral blood lymphocytes; experiment: Suppression of human PBL proliferation in vitro ([3H]thymidine incorporation), with or without anti-CD3 (X-35); assay type: cell-based
Method: One measure of immunosuppression is suppression of stimulated peripheral blood lymphocyte (PBL) proliferation in vitro. In the assay detailed in Example 3, PBLs were activated in vitro by addition of anti-CD3 monoclonal antibody (X-35 antibody). At the same time, purified tripterinin or vehicle (control) was added to each culture, at selected concentrations. After 72 hours incubation, tritiated thymidine was added to the culture medium, and thymidine incorporation into DNA was assayed, as a measure of DNA synthesis associated with cell proliferation.
The ability of tripterifordin to inhibit anti-CD3 stimulated PBL proliferation was assayed at concentrations of 0, 0.78, 3.13, and 12.5 μg/ml, with the results shown in FIG. 9.
Human peripheral blood lymphocytes were prepared using an established method (Boyum). Human blood buffy coat samples, approximately 25 ml/donor, were obtained from the Stanford University Medical Center Blood Bank. Using sterile technique, the buffy coat samples were gently resuspended in a total volume of 100 ml with the addition of calcium and magnesium free Hank's balanced salt solution (HBSS, obtained from Gibco) at room temperature. A volume of 25 ml of the cell suspension was then layered onto 15 ml of Ficoll-Pacque (Pharmacia LKB Biotechnology, Inc.) in a 50 ml conical centrifuge tube. Tubes were centrifuged in a Beckman GPR tabletop centrifuge (GH-3.7 Rotor) at 400×g for 30 minutes at 15° C.
Following centrifugation, the PBL suspensions at the interfaces were transferred to new 50 ml tubes using a transfer pipette, and the PBL samples were resuspended in a total volume of 45 ml HBSS and centrifuged at 354×g for 10 minutes at 15° C. Supernatants were discarded. PBL's were resuspended in 10 ml HBSS, combined to make a total of 45 ml HBSS, and centrifuged at 265×g for 10 minutes at 15° C. The cell pellets were suspended in 10 ml of X-Vivo tissue culture medium (Bio Whittaker) and counted using a hemocytometer. Tissue culture medium was then added to achieve a final cell concentration of 1× 10^6 cells/ml. Additional dilutions were carried out as required for each assay.
Assays were carried out in 96 well sterile tissue culture plates (Costar 3790 and Costar 3595). A volume of 150 μl of X-Vivo medium or sterile distilled water was added to the outer wells of the plate to prevent evaporation of medium within the experimental wells. PBL's from 2 different donors were used in parallel in all experiments. A volume of 100 μl PBL suspension was added to each well using a multichannel pipette. Plates were incubated in an atmosphere of 93% air/7% CO2 in a tissue culture incubator at 37° C. X-35 (AMAC #0178), an anti CD-3 surface antigen antibody, was used at 5 ng/ml to stimulate PBL proliferation.
Tripterinin or tripterifordin was dissolved in ethanol (10 mg/ml) and then diluted in sterile X-Vivo tissue culture medium to obtain the final concentrations required for each experiment.
Four hours prior to the conclusion of incubation, 50 μl of X-Vivo tissue culture medium containing 8 μCi/ml [^3 H]Thymidine (Amersham, 49 Ci/mmol) was added to each tissue culture well. After 72 hours total incubation time, the cells were removed from the tissue culture wells and applied to filter paper using a cell harvester (Brandel Model MB-24). The filter paper was dried for one hour under a heat lamp and then cut into 1 cm discs. Each sample was placed in a scintillation vial containing 2 ml of scintillation fluid (Biosafe, Research Products International Corp.). Samples were counted in a Beckman LS 6000SC scintillation counter.

SMILES	serum level of TNFα (TNFα)	serum level of IL-1 (IL-1)	anti-HIV activity (HIV)	inhibition of IL-1 stimulated thymocyte proliferation (mouse thymocytes)	inhibition of IL-1 stimulated thymocyte proliferation (mouse thymocytes; listed as Tripterifordin)	inhibition of anti-CD3 stimulated PBL proliferation ([1]; highest concentration tested, 12.5 μg/ml, FIG. 9)	inhibitory effect on PBL proliferation ([1]; stimulated and unstimulated (tripterinin), FIG. 9 (tripterifordin))
O=C(O)c1cc(/N=N/c2ccc(S(=O)(=O)Nc3ccccn3)cc2)ccc1O [sulfasalazine]	decline	decline					
C[C@@]1(O)C[C@@]23CC[C@H]4[C@@]5(CCC[C@]4(C)C(=O)OC5)[C@@H]2CC[C@H]1C3 [tripterifordin, reference compound]			anti-HIV principle	little or no inhibitory effect	failed to inhibit	failed to significantly inhibit PBL proliferation	little or no inhibitory effect
